# From ChEMBL document CHEMBL1129710, “Glycomimetic selectin inhibitors: (-D-mannopyranosyloxy)methylbiphenyls” (Bioorg Med Chem Lett, 1996)
# The source made the active and inactive calls. No cut-off for these calls is given here.
# Tests used:
# HL-60 [1] = test: Compound was tested for its ability to inhibit sialyl Lewis X (sLex, IC50 = 2 mM) dependent binding of HL-60 cells to P-selectin fusion protein; format: functional
# HL-60 [2] = test: Compound was tested for its ability to inhibit sialyl Lewis X (sLex, IC50 = 2 mM) dependent binding of HL-60 cells to P-selectin fusion protein; Not assayed; format: functional, cell-based
# E-selectin = molecular target: T1, E-selectin (Mus musculus, UniProt Q00690); test: Compound was tested for its ability to inhibit sialyl Lewis X dependent binding of HL-60 cells to Selectin E fusion protein
# T1 sequence (Q00690 whole entry): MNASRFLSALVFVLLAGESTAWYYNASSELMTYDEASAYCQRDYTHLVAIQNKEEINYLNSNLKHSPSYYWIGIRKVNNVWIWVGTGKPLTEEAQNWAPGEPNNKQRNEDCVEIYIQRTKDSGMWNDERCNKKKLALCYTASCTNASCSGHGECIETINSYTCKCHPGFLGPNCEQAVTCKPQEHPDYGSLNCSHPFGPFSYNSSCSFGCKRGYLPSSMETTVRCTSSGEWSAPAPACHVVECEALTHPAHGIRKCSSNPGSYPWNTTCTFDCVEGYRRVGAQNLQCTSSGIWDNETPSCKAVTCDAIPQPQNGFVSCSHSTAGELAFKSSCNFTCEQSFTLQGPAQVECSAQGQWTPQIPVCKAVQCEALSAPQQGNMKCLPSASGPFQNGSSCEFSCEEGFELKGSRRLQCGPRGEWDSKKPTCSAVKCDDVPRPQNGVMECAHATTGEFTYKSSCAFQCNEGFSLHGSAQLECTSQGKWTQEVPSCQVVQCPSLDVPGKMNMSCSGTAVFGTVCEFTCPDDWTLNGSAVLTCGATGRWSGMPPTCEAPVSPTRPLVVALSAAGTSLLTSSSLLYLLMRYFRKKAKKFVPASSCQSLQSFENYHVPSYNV
# HL-60 [3] = test: Compound was tested for its ability to inhibit sialyl Lewis X dependent binding of HL-60 cells to P-selectin fusion protein; format: functional, cell-based; details: Homo sapiens
Compound,Ratio (HL-60 [1]),other results
O=C(O)Cc1ccc(-c2cccc(CO[C@H]3O[C@H](CO)[C@@H](O)[C@@H](O)[C@@H]3O)c2)cc1,>20,
Cc1cc(-c2cccc(CO[C@H]3O[C@H](CO)[C@@H](O)[C@@H](O)[C@@H]3O)c2)cc(C)c1OCC(=O)O,0.5,
O=C(O)COc1cccc(-c2cccc(CO[C@H]3O[C@H](CO)[C@@H](O)[C@@H](O)[C@@H]3O)c2)c1,4.8,
O=C(O)Cc1cccc(-c2ccc(CO[C@H]3O[C@H](CO)[C@@H](O)[C@@H](O)[C@@H]3O)cc2)c1,>>2.3,
O=C(O)Cc1cccc(-c2cccc(CO[C@H]3O[C@H](CO)[C@@H](O)[C@@H](O)[C@@H]3O)c2)c1,1.2,
O=C(O)c1cccc(-c2cccc(CO[C@H]3O[C@H](CO)[C@@H](O)[C@@H](O)[C@@H]3O)c2)c1,2.5,
O=C(O)Cc1cccc(-c2ccccc2CO[C@H]2O[C@H](CO)[C@@H](O)[C@@H](O)[C@@H]2O)c1,,Ratio (HL-60 [2]): inactive
O=C(O)CCC(=O)c1ccc(-c2cccc(CO[C@H]3O[C@H](CO)[C@@H](O)[C@@H](O)[C@@H]3O)c2)cc1,>>10,
O=C(O)COc1ccc(-c2cccc(CO[C@H]3O[C@H](CO)[C@@H](O)[C@@H](O)[C@@H]3O)c2)cc1,1.2,
CC(=O)N[C@H]1[C@H]([C@H](O)[C@H](O)CO)O[C@@](O[C@H]2[C@@H](O)[C@@H](CO)O[C@@H](O[C@@H]([C@H](O[C@@H]3O[C@@H](C)[C@@H](O)[C@@H](O)[C@@H]3O)[C@H](C=O)NC(C)=O)[C@H](O)CO)[C@@H]2O)(C(=O)O)C[C@@H]1O [SIALYL LEWIS X],,IC50 (E-selectin): 3 mM; IC50 (HL-60 [3]): 2 mM
